Consider ten molecules from patent publication US5120859A, “Chimeric amino acid analogues” (dated 1992).

pIC50: −log10 of the molar value. Starred links: 1 amine or outer side, 2 acyl side, 3 side chain; linkers in the order of their positions; H or OH if unused. Non-standard residues stand in square brackets, D forms with d. Residues, ends and D or L forms follow the SMILES beside them. Pro(trans-4-guanidino) = N=C(N)N[C@H]1CN[C@H](C(=O)O)C1; Pro(cis-4-guanidino) = NC(N)=N[C@@H]1CN[C@H](C(=O)O)C1; X4 = N=C(N)NC[C@@H]1C[C@@H](C(=O)[*:2])N([*:1])C1; X1 = N=C(N)NC[C@@H]1C[C@H](C(=O)[*:2])N([*:1])C1; X2 = N=C(N)NC[C@H]1C[C@@H](C(=O)[*:2])N([*:1])C1; X5 = N=C(N)NC[C@H]1C[C@H](C(=O)[*:2])N([*:1])C1; X3 = N=C(N)N[C@H]1C[C@H](C(=O)[*:2])N([*:1])C1

Chain of IIbIIIa receptor (P08514 32-1039): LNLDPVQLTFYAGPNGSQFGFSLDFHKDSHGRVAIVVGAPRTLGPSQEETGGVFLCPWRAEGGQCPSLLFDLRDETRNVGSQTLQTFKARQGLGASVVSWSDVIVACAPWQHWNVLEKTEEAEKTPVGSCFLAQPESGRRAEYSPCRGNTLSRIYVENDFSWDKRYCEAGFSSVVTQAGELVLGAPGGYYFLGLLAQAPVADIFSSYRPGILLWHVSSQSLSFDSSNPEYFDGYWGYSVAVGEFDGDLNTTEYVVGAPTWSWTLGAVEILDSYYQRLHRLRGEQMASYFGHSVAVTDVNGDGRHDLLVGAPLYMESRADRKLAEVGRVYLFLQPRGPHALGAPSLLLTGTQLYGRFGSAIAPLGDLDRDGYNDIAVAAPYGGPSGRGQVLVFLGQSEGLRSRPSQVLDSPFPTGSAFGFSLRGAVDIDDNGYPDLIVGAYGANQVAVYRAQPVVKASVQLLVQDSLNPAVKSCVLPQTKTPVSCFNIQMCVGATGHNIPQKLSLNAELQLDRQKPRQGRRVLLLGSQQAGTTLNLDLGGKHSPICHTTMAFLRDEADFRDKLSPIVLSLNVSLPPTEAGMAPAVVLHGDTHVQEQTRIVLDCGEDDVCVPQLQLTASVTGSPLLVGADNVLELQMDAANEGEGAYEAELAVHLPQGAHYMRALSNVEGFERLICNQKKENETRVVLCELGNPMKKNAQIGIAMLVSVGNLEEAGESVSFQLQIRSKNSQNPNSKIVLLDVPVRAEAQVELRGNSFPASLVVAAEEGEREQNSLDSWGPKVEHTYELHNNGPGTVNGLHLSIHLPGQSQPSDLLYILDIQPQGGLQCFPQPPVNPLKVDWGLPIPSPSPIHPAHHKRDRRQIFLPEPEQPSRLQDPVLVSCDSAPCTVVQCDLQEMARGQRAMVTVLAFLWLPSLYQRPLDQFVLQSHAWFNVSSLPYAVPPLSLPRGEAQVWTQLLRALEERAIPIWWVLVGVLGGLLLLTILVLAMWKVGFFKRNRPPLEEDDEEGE
Chain of IIbIIIa receptor (P05106 27-788): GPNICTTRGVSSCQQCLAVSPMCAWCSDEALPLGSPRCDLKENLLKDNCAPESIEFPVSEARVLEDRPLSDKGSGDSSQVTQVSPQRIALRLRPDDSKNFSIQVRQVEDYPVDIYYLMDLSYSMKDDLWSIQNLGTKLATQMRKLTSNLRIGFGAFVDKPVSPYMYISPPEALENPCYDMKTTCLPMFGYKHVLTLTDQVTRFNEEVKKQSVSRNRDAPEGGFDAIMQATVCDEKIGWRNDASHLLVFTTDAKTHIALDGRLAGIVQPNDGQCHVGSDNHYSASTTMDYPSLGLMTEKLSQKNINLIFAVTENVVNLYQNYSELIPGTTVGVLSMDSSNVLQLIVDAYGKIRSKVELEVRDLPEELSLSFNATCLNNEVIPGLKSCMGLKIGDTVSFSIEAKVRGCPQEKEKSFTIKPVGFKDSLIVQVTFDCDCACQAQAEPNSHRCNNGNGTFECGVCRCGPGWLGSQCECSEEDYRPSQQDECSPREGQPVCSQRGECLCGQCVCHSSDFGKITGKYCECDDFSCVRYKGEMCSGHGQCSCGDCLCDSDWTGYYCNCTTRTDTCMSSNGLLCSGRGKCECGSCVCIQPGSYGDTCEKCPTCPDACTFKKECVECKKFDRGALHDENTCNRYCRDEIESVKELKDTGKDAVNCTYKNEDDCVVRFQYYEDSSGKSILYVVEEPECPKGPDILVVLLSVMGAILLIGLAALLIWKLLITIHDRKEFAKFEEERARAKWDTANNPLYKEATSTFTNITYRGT

The test has as its target IIbIIIa receptor (Homo sapiens, UniProt P05106+P08514). Nature of the test: biochemical. As to conditions: read-out: IC50 (Ratio to GRGDV IC50). How it is done:
Microtier plates are coated with fibrinogen (10 ug/ml) and then blocked with TACTS buffer containing 0.5% BSA. (TACTS buffer contains 20 mM Tris.HCl, pH 7.5, 0.02% sodium azide, 2 mM calcium chloride, 0.05% Tween 20, 150 mM sodium chloride.) The plate is washed with phosphate buffered saline containing 0.01% Tween 20 and a dilution of the sample to be determined added, followed by addition of solubilized IIbIIIa receptor (40 ug/ml) in TACTS, 0.5% BSA. After incubation, the plate is washed and murine monoclonal anti-platelet antibody AP3 (1 ug/ml) added. After another wash, […] IgG conjugated to horseradish peroxidase are added. A final wash is performed and developing reagent buffer (10 mg o-phenylenediamine dihydrochloride, 0.0212% hydrogen peroxide, 0.22 mM citrate, 50 mM phosphate, pH 5.0) is added and then incubated until color developed. The reaction is stopped with 1N sulfuric acid and the absorbance at 492 nm is recorded. […] The ratio represents the ratio of the IC50 of the test compound to the IC50 of the internal standard (GRGDV).
For `CC(C)[C@H](NC(=O)[C@H](CC(=O)O)NC(=O)CNC(=O)[C@@H]1C[C@@H](CNC(=N)N)CN1C(=O)CN)C(=O)O` [##STR53##] (H-G[X4]GDV-OH), the pIC50 is 7.52.

Regarding `CC(C)[C@H](NC(=O)[C@H](CC(=O)O)NC(=O)CNC(=O)[C@H]1C[C@H](CNC(=N)N)CN1)C(=O)O` [##STR51##], the pIC50 is 8.19.

With `CC(C)[C@H](NC(=O)[C@H](CC(=O)O)NC(=O)CNC(=O)[C@@H]1C[C@H](NC(=N)N)CN1)C(=O)O` [##STR59##] (H-[Pro(cis-4-guanidino)]GDV-OH), the pIC50 was 6.81.

For the molecule `CC(C)[C@H](NC(=O)[C@H](CC(=O)O)NC(=O)CNC(=O)[C@@H]1C[C@H](NC(=N)N)CN1C(=O)CN)C(=O)O` [##STR55##] (H-G[Pro(cis-4-guanidino)]GDV-OH), the pIC50 was 6.25.

Regarding `CC(C)[C@H](NC(=O)[C@H](CC(=O)O)NC(=O)CNC(=O)[C@H]1C[C@H](NC(=N)N)CN1C(=O)CN)C(=O)O` [##STR54##] (H-G[X3]GDV-OH), the pIC50 was 6.65.

Take `CC(C)[C@H](NC(=O)[C@H](CC(=O)O)NC(=O)CNC(=O)[C@@H]1C[C@@H](NC(=N)N)CN1C(=O)CN)C(=O)O` [##STR60##] (H-G[Pro(trans-4-guanidino)]GDV-OH): the pIC50 was 5.77.

Turning to `CC(C)[C@H](NC(=O)[C@H](CC(=O)O)NC(=O)CNC(=O)[C@H]1C[C@@H](CNC(=N)N)CN1C(=O)CN)C(=O)O` [##STR57##] (H-G[X1]GDV-OH), the pIC50 is 7.60.

As to `CC(C)[C@H](NC(=O)[C@H](CC(=O)O)NC(=O)CNC(=O)[C@@H]1C[C@H](CNC(=N)N)CN1C(=O)CN)C(=O)O` [##STR58##] (H-G[X2]GDV-OH), the pIC50 is 7.00.

For `CC(C)[C@H](NC(=O)[C@H](CC(=O)O)NC(=O)CNC(=O)[C@@H]1C[C@H](CNC(=N)N)CN1)C(=O)O` [##STR52##], the pIC50 was 8.00.

`CC(C)[C@H](NC(=O)[C@H](CC(=O)O)NC(=O)CNC(=O)[C@H]1C[C@H](CNC(=N)N)CN1C(=O)CN)C(=O)O` [##STR56##] (H-G[X5]GDV-OH): the pIC50 is 7.43.
